Reference: US11844791B2, “Use of antagonists and/or inverse agonists of CB1 receptors for preparing medicaments for treating fatigue post-viral fatigue syndrome” (FUNDACION HOSPITAL NACIONAL DE PARAPÉJICOS, priority 2020, dated 2023)

How the values were obtained:
[1] = system: healthy volunteers; assay: Tolerability and adverse effects of a single Rimonabant dose in healthy volunteers; assay type: in vivo, human; details: single dose 20 mg
Description: (§1) Neurophysiological examination was performed before and 24 hours after the administration of a single dose of 20 mg of Rimonabant.
(§2) Nine healthy volunteers (mean age±S.D. 32.1±5.8 years) participated in all experiments. All the subjects gave their written informed consent.
Hitherto, three subjects experienced agitation and anxiety (this effect lasted an average of 6 hours) and one suffered for nausea (for 24 hours).

[2] = system: human motor system (motor cortex and spinal motor neurons); assay: Transcranial magnetic stimulation: MEP amplitude in first dorsal interosseous muscle before and 24 hours after a single Rimonabant dose; assay type: in vivo; details: healthy subjects, 24 hours after single dose Rimonabant 20 mg; MEP at 120% RMT, FDI at rest; baseline 1.1±0.6 mV; paired T test p=0.02
Description: The aim of the present experiments was to use transcranial magnetic stimulation to test the effects of a single dose of 20 mg of Rimonabant on the excitability of motor cortex and of spinal motor neurons.
as §1
Using transcranial magnetic stimulation (TMS), it was evaluated the thresholds for electromyographic responses in the first dorsal interosseous muscle (FDI) at rest and during voluntary contraction.
as §2
Magnetic stimulation was performed using a high-power Magstim 200 magnetic stimulator (Magstim Co., Whitland, UK). A figure-of-eight coil with external loop diameters of 9 cm was held over the right motor cortex at the optimum scalp position to elicit motor responses in the contralateral first dorsal interosseous (FDI). The induced current flowed in a postero-anterior direction. Resting motor threshold (RMT) was defined as the minimum stimulus intensity that produced a liminal motor evoked response (about 50 μV in 50% of 10 trials) at rest. The main variables we test is the RMT and MEP amplitude before and 24 hours after the Rimonabant 20 mg. MEP amplitude was obtained at 120% RMT. […]

[3] = as previously described; cited from earlier work

Question: For `Cc1c(C(=O)NN2CCCCC2)nn(-c2ccc(Cl)cc2Cl)c1-c1ccc(Cl)cc1` [Rimonabant, N-(piperidino-1-yl)-5-(4-chlorophenyl)-1-(2,4-dichlorophenyl)-4-methylpyrazole-3-carboxamide], which “Average duration of agitation and anxiety” value ([1]; healthy volunteers) is on record?
Answer: Its value is 6 h.

Question: And the Duration of nausea ([1]; healthy volunteers)?
Answer: Its Duration of nausea is 24 h.

Question: And the Effects on vigilance ([1]; healthy volunteers)?
Answer: Its Effects on vigilance is “moderate”.

Question: What about the “Subjects who experienced agitation and anxiety” value ([1]; of nine healthy volunteers) of the same compound?
Answer: The value was “three”.

Question: What about the “Subjects who suffered nausea” value ([1]; of nine healthy volunteers) of the same compound?
Answer: The value was “one”.

Question: What about the “MEP amplitude (motor system excitability), mean±S.D.” value [2] of the same compound?
Answer: Its value is 2.1±1.2 mV.

Question: What about the Blood-brain barrier penetration [3] of the same compound?
Answer: The Blood-brain barrier penetration was “penetrates the blood-brain barrier”.
